ChEMBL document CHEMBL1201862, “PubChem BioAssay data set” (2004)
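Grown in 96-well plates, cells were treated for 48 hours with each compound at five concentrations. Insufficient inhibition: endpoint recorded as highest concentration tested. Here, GI50 denotes the concentration required for 50% inhibition of growth.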 Calls of active or inactive are those of the source. Rule as the data show it: active = GI50 up to about 1.1 µM and inactive = higher.

How the values were obtained:
Assay in all cases: NCI anticancer screen, dose series, 48 h
[1] = test system: DMS-273
[2] = test system: COLO 205
[3] = test system: OVCAR-3
[4] = test system: M14
[5] = test system: LXFL 529
[6] = test system: A549
[7] = test system: ACHN
[8] = test system: Malme-3M
[9] = test system: SF-295
[10] = test system: K562
[11] = test system: HCT-116
[12] = test system: MOLT-4
[13] = test system: M19-MEL
[14] = test system: HOP-62
[15] = test system: SF-539
[16] = test system: HCC 2998
[17] = test system: HOP-18
[18] = test system: KM12
[19] = test system: HT-29
[20] = test system: DLD-1
[21] = test system: UACC-257
[22] = test system: SK-MEL-2
[23] = test system: SNB-75
[24] = test system: 786-0
[25] = test system: NCI-H226
[26] = test system: SK-MEL-28
[27] = test system: HL-60
[28] = test system: SNB-19
[29] = test system: SK-OV-3
[30] = test system: NCI-H522
[31] = test system: CCRF-CEM
[32] = test system: SK-MEL-5
[33] = test system: UACC-62
[34] = test system: EKVX
[35] = test system: RXF 393
[36] = test system: IGROV-1
[37] = test system: OVCAR-5
[38] = test system: SN12C
[39] = test system: NCI-H460
[40] = test system: OVCAR-4
[41] = test system: HCT-15
[42] = test system: SNB-78
[43] = test system: HOP-92
[44] = test system: RPMI-8226
[45] = test system: UO-31
[46] = test system: KM-20L2
[47] = test system: SW-620
[48] = test system: SR
[49] = test system: DMS-114
[50] = test system: U-251
[51] = test system: SF-268
[52] = test system: NCI-H23
[53] = test system: OVCAR-8
[54] = test system: CAKI-1
[55] = test system: A498
[56] = test system: LOX IMVI
[57] = test system: TK-10
[58] = test system: XF498

C=C[Si](C)(C)COC(=O)/C(C#N)=C/C=C/c1ccccc1
GI50 [1]: 85.7 µM (inactive) | GI50 [2]: > 100 µM (inactive) | GI50 [3]: 34.8 µM (inactive) | GI50 [4]: > 100 µM (inactive) | GI50 [5]: 47.5 µM (inactive) | GI50 [6]: > 100 µM (inactive) | GI50 [7]: > 100 µM (inactive) | GI50 [8]: > 100 µM (inactive) | GI50 [9]: > 100 µM (inactive) | GI50 [10]: 59 µM (inactive) | GI50 [11]: > 100 µM (inactive) | GI50 [12]: 28.7 µM (inactive) | GI50 [13]: 99.5 µM (inactive) | GI50 [14]: > 100 µM (inactive) | GI50 [15]: > 100 µM (inactive) | GI50 [16]: > 100 µM (inactive) | GI50 [17]: > 100 µM (inactive) | GI50 [18]: > 100 µM (inactive) | GI50 [19]: > 100 µM (inactive) | GI50 [20]: > 100 µM (inactive) | GI50 [21]: > 100 µM (inactive) | GI50 [22]: > 100 µM (inactive) | GI50 [23]: 34.6 µM (inactive) | GI50 [24]: > 100 µM (inactive) | GI50 [25]: > 100 µM (inactive) | GI50 [26]: > 100 µM (inactive) | GI50 [27]: 39.2 µM (inactive) | GI50 [28]: > 100 µM (inactive) | GI50 [29]: > 100 µM (inactive) | GI50 [30]: 46.3 µM (inactive) | GI50 [31]: 32.3 µM (inactive) | GI50 [32]: > 100 µM (inactive) | GI50 [33]: 88.7 µM (inactive) | GI50 [34]: > 100 µM (inactive) | GI50 [35]: 40.6 µM (inactive) | GI50 [36]: > 100 µM (inactive) | GI50 [37]: > 100 µM (inactive) | GI50 [38]: > 100 µM (inactive) | GI50 [39]: > 100 µM (inactive) | GI50 [40]: > 100 µM (inactive) | GI50 [41]: 78.2 µM | GI50 [42]: > 100 µM (inactive) | GI50 [43]: > 100 µM (inactive) | GI50 [44]: 37.2 µM (inactive) | GI50 [45]: > 100 µM (inactive) | GI50 [46]: > 100 µM (inactive) | GI50 [47]: 76 µM (inactive) | GI50 [48]: 25.2 µM (inactive) | GI50 [49]: > 100 µM (inactive) | GI50 [50]: > 100 µM (inactive) | GI50 [51]: > 100 µM (inactive) | GI50 [52]: > 100 µM (inactive) | GI50 [53]: > 100 µM (inactive)

CCCC/C(C)=N/NC(N)=S
GI50 [54]: > 100 µM (inactive) | GI50 [2]: > 100 µM (inactive) | GI50 [3]: > 100 µM (inactive) | GI50 [4]: > 100 µM (inactive) | GI50 [5]: > 100 µM (inactive) | GI50 [6]: > 100 µM (inactive) | GI50 [7]: > 100 µM (inactive) | GI50 [8]: > 100 µM (inactive) | GI50 [9]: > 100 µM (inactive) | GI50 [10]: > 100 µM (inactive) | GI50 [11]: > 100 µM (inactive) | GI50 [12]: > 100 µM (inactive) | GI50 [13]: > 100 µM (inactive) | GI50 [14]: > 100 µM (inactive) | GI50 [15]: > 100 µM (inactive) | GI50 [16]: > 100 µM (inactive) | GI50 [17]: > 100 µM (inactive) | GI50 [18]: > 100 µM (inactive) | GI50 [19]: > 100 µM (inactive) | GI50 [20]: > 100 µM (inactive) | GI50 [21]: > 100 µM (inactive) | GI50 [22]: > 100 µM (inactive) | GI50 [23]: > 100 µM (inactive) | GI50 [24]: > 100 µM (inactive) | GI50 [25]: > 100 µM (inactive) | GI50 [26]: > 100 µM (inactive) | GI50 [27]: 14.5 µM (inactive) | GI50 [28]: > 100 µM (inactive) | GI50 [29]: > 100 µM (inactive) | GI50 [30]: > 100 µM (inactive) | GI50 [31]: > 100 µM (inactive) | GI50 [32]: > 100 µM (inactive) | GI50 [33]: > 100 µM (inactive) | GI50 [34]: > 100 µM (inactive) | GI50 [35]: > 100 µM (inactive) | GI50 [36]: > 100 µM (inactive) | GI50 [37]: > 100 µM (inactive) | GI50 [38]: > 100 µM (inactive) | GI50 [55]: > 100 µM (inactive) | GI50 [39]: > 100 µM (inactive) | GI50 [56]: > 100 µM (inactive) | GI50 [41]: > 100 µM | GI50 [42]: > 100 µM (inactive) | GI50 [57]: > 100 µM (inactive) | GI50 [43]: > 100 µM (inactive) | GI50 [44]: > 100 µM (inactive) | GI50 [45]: > 100 µM (inactive) | GI50 [46]: > 100 µM (inactive) | GI50 [47]: > 100 µM (inactive) | GI50 [48]: > 100 µM (inactive) | GI50 [49]: > 100 µM (inactive) | GI50 [50]: > 100 µM (inactive) | GI50 [51]: > 100 µM (inactive) | GI50 [52]: > 100 µM (inactive) | GI50 [53]: > 100 µM (inactive)

COC(=O)CC(C(C(=O)OCc1ccccc1)C(C)O)N1C(=O)OCC1c1ccccc1 (stereo not drawn)
GI50 [58]: 24.1 µM (inactive) | GI50 [1]: 66.1 µM (inactive) | GI50 [2]: 48.4 µM (inactive) | GI50 [3]: 93.5 µM (inactive) | GI50 [4]: > 100 µM (inactive) | GI50 [5]: 56.1 µM (inactive) | GI50 [6]: 44.8 µM (inactive) | GI50 [7]: 63.2 µM (inactive) | GI50 [8]: > 100 µM (inactive) | GI50 [9]: 45 µM (inactive) | GI50 [10]: 34.4 µM (inactive) | GI50 [11]: > 100 µM (inactive) | GI50 [12]: 29.4 µM (inactive) | GI50 [13]: 69.2 µM (inactive) | GI50 [14]: > 100 µM (inactive) | GI50 [15]: > 100 µM (inactive) | GI50 [16]: > 100 µM (inactive) | GI50 [19]: > 100 µM (inactive) | GI50 [20]: 60.4 µM (inactive) | GI50 [21]: 75.7 µM (inactive) | GI50 [22]: > 100 µM (inactive) | GI50 [23]: 20 µM (inactive) | GI50 [24]: > 100 µM (inactive) | GI50 [25]: 31.6 µM (inactive) | GI50 [26]: > 100 µM (inactive) | GI50 [27]: 34.2 µM (inactive) | GI50 [28]: 75.2 µM (inactive) | GI50 [31]: 49 µM (inactive) | GI50 [32]: 42.3 µM (inactive) | GI50 [33]: 35.6 µM (inactive) | GI50 [34]: 62.1 µM (inactive) | GI50 [35]: 95.7 µM (inactive) | GI50 [36]: 69.3 µM (inactive) | GI50 [38]: > 100 µM (inactive) | GI50 [55]: 22.2 µM (inactive) | GI50 [39]: 68.2 µM (inactive) | GI50 [40]: 84.1 µM (inactive) | GI50 [56]: > 100 µM (inactive) | GI50 [41]: > 100 µM | GI50 [57]: > 100 µM (inactive) | GI50 [44]: 27.6 µM (inactive) | GI50 [45]: 24.3 µM (inactive) | GI50 [46]: 83.8 µM (inactive) | GI50 [47]: > 100 µM (inactive) | GI50 [48]: 38.1 µM (inactive) | GI50 [49]: 46.9 µM (inactive) | GI50 [50]: 83 µM (inactive) | GI50 [51]: 97.5 µM (inactive) | GI50 [52]: 60.1 µM (inactive) | GI50 [53]: 91.6 µM (inactive)
